Source: the NIST ThermoML archive (doi:10.1016/j.fluid.2011.02.002)
Values joined by “and” are separate entries in the source; they are usually repeats but may differ in a detail not shown here. Equal values may be shown once. Numbers after ± are expanded uncertainties.

Legend:
[1] = Closed cell (Static) method
[2] = molar heat capacity at constant pressure; details: 101.33 kPa, Liquid, Small sample (50 mg) DSC

C[S+](C)[O-] [dimethyl sulfoxide]
[1]
Details | vapor or sublimation pressure
273.65 K, Crystal | 0.00789 ± 0.00032 kPa
275.65 K, Crystal | 0.00979 ± 0.0004 kPa
278.15 K, Crystal | 0.01278 ± 0.00051 kPa and 0.01277 ± 0.00051 kPa and 0.01275 ± 0.00051 kPa
280.64 K, Crystal | 0.01655 ± 0.00057 kPa
280.65 K, Crystal | 0.01656 ± 0.00057 kPa
283.15 K, Crystal | 0.02138 ± 0.00065 kPa and 0.02137 ± 0.00065 kPa
285.65 K, Crystal | 0.02752 ± 0.00074 kPa and 0.02751 ± 0.00074 kPa
288.15 K, Crystal | 0.03531 ± 0.00087 kPa and 0.03525 ± 0.00086 kPa
290.65 K, Crystal | 0.04487 ± 0.001 kPa and 0.04486 ± 0.001 kPa
293.15 K, Liquid | 0.05512 ± 0.0012 kPa and 0.05509 ± 0.0012 kPa and 0.0551 ± 0.0012 kPa
295.65 K, Liquid | 0.06631 ± 0.0014 kPa and 0.06632 ± 0.0014 kPa and 0.06633 ± 0.0014 kPa
298.15 K, Liquid | 0.07965 ± 0.0016 kPa and 0.07966 ± 0.0016 kPa and 0.07964 ± 0.0016 kPa
300.65 K, Liquid | 0.09517 ± 0.0018 kPa and 0.09518 ± 0.0018 kPa
303.16 K, Liquid | 0.1134 ± 0.0021 kPa
305.66 K, Liquid | 0.1346 ± 0.0021 kPa
308.16 K, Liquid | 0.1592 ± 0.0023 kPa

O=S1(=O)CCCC1 [sulfolane]
[2]
Details | molar heat capacity at constant pressure
304.04 K | 179.5 ± 4.4 J/K/mol and 179.9 ± 4.4 J/K/mol
309.14 K | 181.3 ± 4.4 J/K/mol
309.15 K | 181.6 ± 4.4 J/K/mol
314.25 K | 182.6 ± 4.5 J/K/mol and 183.8 ± 4.5 J/K/mol
319.35 K | 184.7 ± 4.5 J/K/mol and 184.5 ± 4.5 J/K/mol
324.46 K | 185.3 ± 4.5 J/K/mol and 184.4 ± 4.5 J/K/mol
329.56 K | 187.4 ± 4.6 J/K/mol and 186.6 ± 4.6 J/K/mol
334.66 K | 188.7 ± 4.6 J/K/mol
334.67 K | 187.9 ± 4.6 J/K/mol
339.77 K | 189.7 ± 4.6 J/K/mol and 188.5 ± 4.6 J/K/mol
344.88 K | 190.2 ± 4.7 J/K/mol
349.98 K | 192.5 ± 4.7 J/K/mol and 192 ± 4.7 J/K/mol
355.09 K | 193.4 ± 4.7 J/K/mol and 192.3 ± 4.7 J/K/mol

[1], Liquid
Details | vapor or sublimation pressure
302.16 K | 0.00146 ± 0.00012 kPa
303.17 K | 0.00155 ± 0.00012 kPa and 0.00158 ± 0.00012 kPa
305.17 K | 0.00188 ± 0.00013 kPa and 0.00187 ± 0.00013 kPa
306.17 K | 0.00203 ± 0.00013 kPa
307.17 K | 0.00223 ± 0.00014 kPa and 0.00224 ± 0.00014 kPa and 0.0022 ± 0.00014 kPa
308.17 K | 0.00241 ± 0.00014 kPa and 0.0024 ± 0.00014 kPa
